The values that follow come from US20200206198A1, “CFTR CHANNEL ACTIVATOR FOR USE IN THE TREATMENT AND/OR PREVENTION OF GLUTEN SENSITIVITY CONDITIONS” (priority 2017, published 2020).

The structures appear in SMILES notation.

One experiment deals with T1, CFTR (Homo sapiens, UniProt P13569).
T1 construct: Immunoprecipitations of endogenous proteins were performed on 500 μg of lysates from Caco-2 cells; host or cells: Caco-2, T84
In words: CFTR channel function in intestinal epithelial cells (forskolin-induced Isc in Ussing chambers; SPQ iodide efflux). It counts as cell-based. The note with it: VX-770 10 μM, VX-532 20 μM, Genistein 10 μM; Caco-2 or T84 cells. As to the method:
Human colon adenocarcinoma-derived Caco-2 and T84 cells (Barone, M. V. et al. 2014; Luciani, A. et al. 2010) were obtained from the ATCC. Cells were maintained in T25 flask in Modified Eagle Medium (MEM) for Caco-2, or Ham's F12+DMEM (1:1) for T84, supplemented with 10% fetal bovine serum (FBS), 2 mM Glutamine+1% Non Essential Amino Acids (NEAA) and the antibiotics penicillin\streptomycin (100 units/ml) (all reagents from Lonza). Caco-2 cells were grown in Transwells (Corning, 3470 or 3460) under the normal condition. Briefly, 8×10^4 or 5×10^5 cells were seeded in 6.5-mm diameter or 12-mm diameter, respectively, and grown until the RT reached 800 to 1,200 Ω·cm^2. Transwells with a pore size of 0.4 μm were used. Medium in both the apical and baso lateral chambers was changed every other day. Cells were treated with 20 μg/ml of either with the α-gliadin peptide comprising the P31-43 amino acid sequence of α-gliadin LGQQQPFPPQQPY (SEQ ID 1) (below referred to as P31-43), which is known to induce an enterocyte stress response (Meresse, B. et al.2009; Barone, M. V. et al. 2014; Luciani, A. et al. 2010), the T-cell activating α-gliadin peptide comprising the P57-68 amino acid sequence of α-gliadin (QLQPFPQPQLPY SEQ ID 2)) (below referred to as P57-68) (Maiuri, L., et al. 2003; Meresse, B. et al.2009; 30 Barone, M. V. et al. 2014), or the scrambled GAVAAVGVVAGA (SEQ ID 3) control peptide (below referred to as PGAV), or with different modified P31-43, either biotin-tagged or not, for different time points (from 1 h short challenge up to 24 h). Cells were also treated with 50 or 100 5 μg/ml of P57-68 or PGAV peptides for 3 h.
Caco-2 or T84 cells were also treated with: CFTR potentiators VX-770 (Ivacaftor) (10 μM) or VX-532 (20 μM) (Selleck chemicals) or Genistein (10 μM) (Verkman, A. S. et al. 2005; Jih, K. Y. et al. 2013) (Sigma-Aldrich) or in presence or absence of CFTR inhibitor172 (CFTRinh172, 20 μM).
Human colon adenocarcinoma-derived Caco-2 and T84 cells were obtained from the ATCC. Cells were maintained in T25 flask in Modified Eagle Medium (MEM) for Caco-2, or Ham's F12+DMEM (1:1) for T84, supplemented with 10% fetal bovine serum (FBS), 2 mM Glutamine+1% Non Essential Amino Acids (NEAA) and the antibiotics penicillin\streptomycin (100 units/ml) (all reagents from Lonza) (Luciani, A., et al. 2010. Cells were grown in Transwells (Corning, 3470 or 3460) under the normal condition (Luciani, A., et al. 2012). Briefly, 8×10^4 or 5×10^5 cells were seeded in 6.5-mm diameter or 12-mm diameter, respectively, and grown until the RT reached 800 to 1,200 Ω·cm2. Transwells with a pore size of 0.4 μm were used. Medium in both the apical and basolateral chambers was changed every other day. […]
A general note: Caco-2 monolayers are a common model of the intestinal barrier.

Another experiment concerns Caco-2 cells. In words: Endosomal trafficking proteins in Caco-2 cells (immunoblot, endosomal fractions). It counts as cell-based, human. The note with it: lost if 3-MA or CFTR inhibitor added. The protocol:
(§1) Human colon adenocarcinoma-derived Caco-2 and T84 cells were obtained from the ATCC. Cells were maintained in T25 flask in Modified Eagle Medium (MEM) for Caco-2, or Ham's F12+DMEM (1:1) for T84, supplemented with 10% fetal bovine serum (FBS), 2 mM Glutamine+1% Non Essential Amino Acids (NEAA) and the antibiotics penicillin\streptomycin (100 units/ml) (all reagents from Lonza) (Luciani, A., et al. 2010. Cells were grown in Transwells (Corning, 3470 or 3460) under the normal condition (Luciani, A., et al. 2012). Briefly, 8×10^4 or 5×10^5 cells were seeded in 6.5-mm diameter or 12-mm diameter, respectively, and grown until the RT reached 800 to 1,200 Ω·cm2. Transwells with a pore size of 0.4 μm were used. Medium in both the apical and basolateral chambers was changed every other day. Cells were treated with 20 μg/ml of either α-gliadin peptide P31-43 or […] or scrambled PGAV or modified P31-43 either biotin-tagged or not, for different time point (from 1 h short challenge up to 24 h). Cells were also treated with 50 or 100 μg/ml of P57-68 or PGAV peptides for 3 h. Caco-2 or T84 cells were also treated with: CFTR potentiators VX-770 (10 μM) or VX-532 (20 μM) (Selleck chemicals) or Genistein (10 μM) (Sigma-Aldrich) or in presence or absence of CFTR inhibitor172 (CFTRinh172, 20 μM) or 3-methyl-adenine (3-MA, 20 μM) (Calbiochem), Z-DON (20 nM, Zedira) or BAPTA-AM (10 μM, Calbiochem).
The whole lysate or membrane fraction proteins of cell lines and mice intestine homogenates were obtained from treated and untreated cells or mice as described. The equal amount of protein were resolved by SDS-PAGE gel and blotted with antibodies against: SQSTM1, (Sigma Aldrich, 108k4767) 1:1000, PPARγ (Santa Cruz Biotechnology, sc7273) 1:500, BECN1 (Abcam, ab58878) 1:1000, CFTR clone M3A7 (Abcam, ab4067) 1:500, phospho-ERK1/2 (php42/44, Cell Signaling Technology, #91101) 1:1000, UVRAG (Santa Cruz Biotechnology sc8215) 1:1000, NHERF-1 (BD, 611161) 1:1000, EZRIN (BD, 610603) 1:1000, hVps34 (SigmaV9764) 1:300, biotin (Abcam, ab1227) 1:2000, PKAr2a (BD, 610625) 1:500, Ubiquitin (Cell Signaling clone P4D1, #3936) 1:1000, CHIP (Calbiochem PC711) 1:500, Caspase-1 p10 (M-20) (Santa Cruz Biotechnology, sc-514) 1:200, NLRP3 (Abcam, ab4207), 1:500, IDO1 (monoclonal; cv152) 1:1000^[80], used as primary antibodies. Normalization was performed by probing the membrane with anti-β-actin (Cell Signaling, #4970) 1:1000, anti-Gapdh (Sigma-Aldrich, G8795) 1:1000 and anti-flottilin (Abcam ab15148) 1:1000 antibodies. Immunoprecipitations of endogenous proteins were performed on 500 μg of lysates from Caco-2 cells. The proteins were incubated for 12-18 h at 4° C. with 10 ug\ml of specific antibody followed by the addition of Protein A/G-agarose beads for 4 h at 4° C. […]
A general note: A western blot detects proteins with antibodies after separation by electrophoresis.

A further experiment deals with T2, PM-associated CFTR (Homo sapiens, UniProt P13569).
T2 construct: Immunoprecipitations of endogenous proteins were performed on 500 μg of lysates from Caco-2 cells; host or cells: Caco-2, T84
In words: CFTR plasma membrane disposal in Caco-2 cells (membrane fractions). In kind it is cell-based. The protocol: as §1
The whole lysate or membrane fraction proteins of cell lines and mice intestine homogenates were obtained from treated and untreated cells or mice as described. The equal amount of protein were resolved by SDS-PAGE gel and blotted with antibodies against: SQSTM1, (Sigma Aldrich, 108k4767) 1:1000, PPARγ (Santa Cruz Biotechnology, sc7273) 1:500, BECN1 (Abcam, ab58878) 1:1000, CFTR clone M3A7 (Abcam, ab4067) 1:500, phospho-ERK1/2 (php42/44, Cell Signaling Technology, #91101) 1:1000, UVRAG (Santa Cruz Biotechnology sc8215) 1:1000, NHERF-1 (BD, 611161) 1:1000, EZRIN (BD, 610603) 1:1000, hVps34 (SigmaV9764) 1:300, biotin (Abcam, ab1227) 1:2000, PKAr2a (BD, 610625) 1:500, Ubiquitin (Cell Signaling clone P4D1, #3936) 1:1000, CHIP (Calbiochem PC711) 1:500, Caspase-1 p10 (M-20) (Santa Cruz Biotechnology, sc-514) 1:200, NLRP3 (Abcam, ab4207), 1:500, IDO1 (monoclonal; cv152) 1:1000^[80], used as primary antibodies. Normalization was performed by probing the membrane with anti-β-actin (Cell Signaling, #4970) 1:1000, anti-Gapdh (Sigma-Aldrich, G8795) 1:1000 and anti-flottilin (Abcam ab15148) 1:1000 antibodies. Immunoprecipitations of endogenous proteins were performed on 500 μg of lysates from Caco-2 cells. The proteins were incubated for 12-18 h at 4° C. with 10 ug\ml of specific antibody followed by the addition of Protein A/G-agarose beads for 4 h at 4° C. The beads were then washed three times with lysis buffer and Laemmli's sample buffer was added to the samples. The membranes were then blotted with: CFTR clone CF3 (Abcam, ab2784) 1:1000, TG2 (clone CUB7402; NeoMarkers) 1:1000, CHIP (Calbiochem PC711) 1:500, Ubiquitin (Cell Signaling clone P4D1 3936), isopeptide (Abcam 422) 1:1000, PKAR2 (BD 610625) 1:500.
Protein from membrane fractionation were obtained as described. Cells were homogenized with a PotterElvehjem pestle and centrifuged at 2300×g for 15 min at 4° C. […]

T2 sequence (P13569 whole entry): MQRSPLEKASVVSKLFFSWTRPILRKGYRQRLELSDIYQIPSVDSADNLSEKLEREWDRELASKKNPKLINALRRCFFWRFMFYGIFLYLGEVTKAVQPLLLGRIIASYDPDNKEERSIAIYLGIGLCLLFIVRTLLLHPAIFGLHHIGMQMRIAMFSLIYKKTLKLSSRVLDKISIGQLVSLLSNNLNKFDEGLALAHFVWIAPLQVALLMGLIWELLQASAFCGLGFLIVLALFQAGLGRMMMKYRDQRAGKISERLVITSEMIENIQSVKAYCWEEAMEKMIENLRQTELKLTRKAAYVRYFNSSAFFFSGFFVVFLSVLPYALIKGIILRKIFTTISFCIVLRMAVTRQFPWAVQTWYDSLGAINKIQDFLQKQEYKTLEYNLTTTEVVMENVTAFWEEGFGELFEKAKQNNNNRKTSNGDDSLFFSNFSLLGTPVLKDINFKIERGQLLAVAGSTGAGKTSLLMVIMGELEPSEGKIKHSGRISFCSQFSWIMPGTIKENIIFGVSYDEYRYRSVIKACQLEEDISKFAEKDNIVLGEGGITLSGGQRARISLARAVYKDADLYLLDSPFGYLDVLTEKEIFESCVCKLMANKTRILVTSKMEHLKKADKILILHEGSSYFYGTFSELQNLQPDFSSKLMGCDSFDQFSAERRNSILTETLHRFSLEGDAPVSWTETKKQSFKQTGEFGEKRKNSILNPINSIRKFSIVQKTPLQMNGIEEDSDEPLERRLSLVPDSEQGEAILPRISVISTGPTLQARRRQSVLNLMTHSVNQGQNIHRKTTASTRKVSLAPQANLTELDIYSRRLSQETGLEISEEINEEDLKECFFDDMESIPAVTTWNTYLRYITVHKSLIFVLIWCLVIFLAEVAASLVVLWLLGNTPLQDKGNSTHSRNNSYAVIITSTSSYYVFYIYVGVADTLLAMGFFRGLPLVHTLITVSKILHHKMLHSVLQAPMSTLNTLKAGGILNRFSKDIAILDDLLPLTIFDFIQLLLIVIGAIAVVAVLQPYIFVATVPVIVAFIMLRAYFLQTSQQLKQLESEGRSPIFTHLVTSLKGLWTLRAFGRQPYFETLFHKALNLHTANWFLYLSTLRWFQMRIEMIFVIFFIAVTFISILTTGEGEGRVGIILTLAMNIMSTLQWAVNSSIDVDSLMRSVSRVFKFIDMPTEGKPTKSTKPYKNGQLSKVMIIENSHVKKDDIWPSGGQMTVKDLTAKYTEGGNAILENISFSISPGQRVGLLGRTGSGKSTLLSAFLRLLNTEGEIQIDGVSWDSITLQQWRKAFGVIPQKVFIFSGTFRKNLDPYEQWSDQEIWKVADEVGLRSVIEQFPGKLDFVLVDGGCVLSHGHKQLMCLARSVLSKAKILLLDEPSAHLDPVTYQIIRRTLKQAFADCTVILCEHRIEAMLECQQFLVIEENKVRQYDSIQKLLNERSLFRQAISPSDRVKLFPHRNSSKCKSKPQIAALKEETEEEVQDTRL
T1 sequence (P13569 whole entry): as above

For the compound `Cc1ccc(O)c(-c2cc(-c3ccccc3)[nH]n2)c1` [VX-532, 4-Methyl-2-(5-phenyl-1Hpyrazol-3-yl)-phenol], at CFTR, the “prevention of P31-43 induced decrease of CFTR function” value is listed as “Prevents P31-43 Induced Inhibition of CFTR Function”. Further, the “effect on P31-43-induced reduction of BECN1, hVps34, UVRAG, Rab5 and Rab7” value with Caco-2 cells is “counteracted”. Also, the “effect on P31-43-induced reduction of PM-associated CFTR” value on PM-associated CFTR was “counteracted”.
